# Source: patent publication US20010031790A1, “Treatment for complications of type 2 diabetes” (priority 1999, published 2001)
# “Also recorded” adds a separate entry of the source. Marks after values point to notes of the source that are not given here.
# Experiment: Clinical comparison of patient groups: plasma MG, D-lactate and HbA1c in type 2 diabetic subjects receiving low or high daily dosages of metformin
# Type: in vivo, human
# Settings: for DL (D-lactate) / HbA1c / MG (plasma methylglyoxal level): diabetic subjects
# Text: The differences noted above are shown in the following summary of clinical results utilizing patient groups of individuals free of diabetes, those having diabetes but receiving no metformin, those having diabetes and receiving one gram or less of metformin daily and those receiving more than a gram of metformin daily, respectively. In Table 1, the number of patients in each group is noted as are the levels of plasma MG, DL(D-lactate) and […] (HbA1c).
compound,measurement,setting,value
"CN(C)C(=N)N=C(N)N [Metformin, N,N-dimethylimidocarbonimide diamide]",DL (D-lactate),"metformin >1 g/day, n=13",13.4 ± 4.6^c μmol/l
same,HbA1c,"metformin >1 g/day, n=13",8.3 ± 1.0%
same,MG (plasma methylglyoxal level),"metformin >1 g/day, n=13",158.4 ± 44.2^b nmol/l
same,DL (D-lactate),"metformin ≦1 g/day, n=17",13.8 ± 7.7^c μmol/l
same,HbA1c,"metformin ≦1 g/day, n=17",8.0 ± 1.1%
same,MG (plasma methylglyoxal level),"metformin ≦1 g/day, n=17",210.9 ± 51.0 nmol/L
same,"plasma level of MG, result in words","group taking high dosages of metformin, versus low dosage group and diabetics without metformin",significant lowering of plasma levels of MG; also recorded: significantly lower plasma level of MG
same,difference in glycemic control between high and low dosages,high versus low dosage groups of metformin,little difference in glycemic control
same,"levels of D-lactate, result in words","metformin administration versus diabetic control group receiving no metformin, no significant difference between high and low dosages",increased
